Reference: US20130060013A1, “Compounds useful for treating neurodegenerative disorders” (SATORI PHARMACEUTICALS, INC., priority 2011, published 2013)

Experiments:
Type in all cases: cell-based
Conditions in all cases: Homo sapiens, compound 5 hours at 37° C., 1% DMSO, percent vehicle fit to 4 parameter curve
Aβ-38 = Aβ-38 level in conditioned media of 2B7 cells (MSD 3-PLEX ELISA)
Protocol: (§1) Assays were conducted to determine the ability of a Compound of Formula I to modulate […], and Aβ-38.
(§2) Plates with capture antibodies were blocked for 1-2 hours at room temperature with 150 μL of the manufactures blocking reagent.
(§3) Cultured 2B7 cells in 96 well plate with 250 uL of media per well until confluent;
(§4) Prepared serial dilutions of compounds in DMSO at 100× the final desired concentration;
(§5) Washed wells with 2B7 cells 1× with 250 uL of media;
(§6) Diluted DMSO stocks 1:100 into media:
(§7) Added 250 μL of media containing compounds (1% DMSO) to wells with 2B7 cells for 5 hours at 37° C.
(§8) Diluted conditioned media: 1 part media with 1% DMSO and 1 part blocking buffer;
(§9) 150 μL of the 250 μL of conditioned media were used.
(§10) Standard Curve Sample Prep:
(§11) Prepared per manufacturer's protocol (see above)
(§12) Seven point standard curve samples were prepared that contained Aβ-42, Aβ-40, and Aβ-38. The highest concentration of Aβ-42 and Aβ-38 was 3,000 pg/mL and the highest concentration of Aβ-40 was 10,000 pg/mL. Subsequent serial dilutions were 1:3 and the final composition of each sample was 1 part blocking buffer and 1 part cell medium containing 1% DMSO.
(§13) Overnight Sample Incubation:
(§14) Blocked plates are washed 5× with MSD wash buffer with a plate washer
(§15) 25 uL of detection antibody and blocker G reagent in MSD blocking solution is added
(§16) 25 uL of samples (1 part conditioned media containing 1% DMSO and 1 part MSD blocking buffer) are then added.
(§17) plates are incubated overnight at 4 degrees C. or 2 hours at room temp
(§18) Wash wells 5× with MSD wash buffer
(§19) Added 150 μL 2×MSD read buffer
(§20) A-Beta peptide levels for each peptide are calculated from the standard curve using the MSD software provided with the MSD 2400 Imager. Percent vehicle values for each compound dosage were then calculated and fit to a 4 parameter curve generating IC50 values.

Aβ-40 = Aβ-40 level in conditioned media of 2B7 cells (MSD 3-PLEX ELISA)
Protocol: as §1
Human (6E10) Ab 3-PLEX elisa kits were purchased from Meso Scale Discovery Labs, 9328 Gaither Road, Gaithersburg, Md. 20877 (Catalog Number K15148E-3). Plates with capture antibodies were blocked for 1-2 hours at room temperature with 150 μL of the manufactures blocking reagent.
as §3, §4, §5, §6, §7, §8, §9, §10, §11, §12, §13, §14, §15, §16, §17, §18, §19, §20

Aβ-42 = Aβ-42 level in conditioned media of 2B7 cells (MSD 3-PLEX ELISA)
Protocol: as §1, §2, §3, §4, §5, §6, §7, §8, §9, §10, §11, §12, §13, §14, §15, §16, §17, §18, §19, §20

Structure (SMILES): CCO[C@@H]([C@H]1C[C@@H](C)[C@H]2[C@H](O1)[C@H](O)[C@@]1(C)[C@@H]3CC[C@H]4C(C)(C)C(O[C@H]5CN(CCNC(=O)CCC6(C)N=N6)CCO5)CC[C@@]45CC35CC[C@]21C)C(C)(C)O (stereo partly drawn)
- IC50 (Aβ-38): < 1 µM
- IC50 (Aβ-40): > 10 µM
- IC50 (Aβ-42): < 1 µM

Structure (SMILES): CCO[C@@H]([C@H]1C[C@@H](C)[C@H]2[C@H](O1)[C@H](OCC)[C@@]1(C)[C@@H]3CC[C@H]4C(C)(C)[C@@H](O)CCC45C[C@@]35CC[C@]21C)C(C)(C)O (stereo partly drawn)
- IC50 (Aβ-38): 1 to 10 µM
- IC50 (Aβ-40): 1 to 10 µM
- IC50 (Aβ-42): 1 to 10 µM

Structure (SMILES): CCO[C@@H]([C@H]1C[C@@H](C)[C@H]2[C@H](O1)[C@H](O)[C@@]1(C)[C@@H]3CC[C@H]4C(C)(C)[C@@H](O[C@H]5CN([C@@H](C)CN6CCC6)CCO5)CCC45C[C@@]35CC[C@]21C)C(C)(C)O (stereo partly drawn)
- IC50 (Aβ-38): < 1 µM
- IC50 (Aβ-40): 1 to 10 µM
- IC50 (Aβ-42): < 1 µM

Structure (SMILES): CCO[C@@H]([C@H]1C[C@@H](C)[C@H]2[C@H](O1)[C@H](O)[C@@]1(C)[C@@H]3CC[C@H]4C(C)(C)[C@@H](O[C@H]5CN(C(C)(C)COC)CCO5)CCC45C[C@@]35CC[C@]21C)C(C)(C)O (stereo partly drawn)
- IC50 (Aβ-38): < 1 µM
- IC50 (Aβ-40): > 10 µM
- IC50 (Aβ-42): < 1 µM

Structure (SMILES): CO[C@@H]([C@H]1C[C@@H](C)[C@H]2[C@H](O1)[C@H](O)[C@@]1(C)[C@@H]3CC[C@H]4C(C)(C)[C@@H](OC5CN(C6CN(C)C6)CCO5)CCC45C[C@@]35CC[C@]21C)C(C)(C)O (stereo partly drawn)
- IC50 (Aβ-38): < 1 µM
- IC50 (Aβ-40): 1 to 10 µM
- IC50 (Aβ-42): < 1 µM

Structure (SMILES): CCO[C@@H]([C@H]1C[C@@H](C)[C@H]2[C@H](O1)[C@H](O)[C@@]1(C)[C@@H]3CC[C@H]4C(C)(C)[C@@H](O[C@H]5CN(C(C)(C)CN6CC(F)C6)CCO5)CCC45C[C@@]35CC[C@]21C)C(C)(C)O (stereo partly drawn)
- IC50 (Aβ-38): < 1 µM
- IC50 (Aβ-40): 1 to 10 µM
- IC50 (Aβ-42): < 1 µM

Structure (SMILES): CCO[C@@H]([C@H]1C[C@@H](C)[C@H]2[C@H](O1)[C@H](O)[C@@]1(C)[C@@H]3CC[C@H]4C(C)(C)[C@@H](O[C@H]5CN(CC6CN(C(C)=O)C6)CCO5)CCC45C[C@@]35CC[C@]21C)C(C)(C)O (stereo partly drawn)
- IC50 (Aβ-38): 1 to 10 µM
- IC50 (Aβ-40): 1 to 10 µM
- IC50 (Aβ-42): < 1 µM

Structure (SMILES): CCO[C@@H]([C@H]1C[C@@H](C)[C@H]2[C@H](O1)[C@H](O)[C@@]1(C)[C@@H]3CC[C@H]4C(C)(C)[C@@H](O[C@H]5CN(Cc6ncc[nH]6)CCO5)CCC45C[C@@]35CC[C@]21C)C(C)(C)O (stereo partly drawn)
- IC50 (Aβ-38): < 1 µM
- IC50 (Aβ-40): 1 to 10 µM
- IC50 (Aβ-42): < 1 µM

Structure (SMILES): CCO[C@@H]([C@H]1C[C@@H](C)[C@H]2[C@H](O1)[C@H](O)[C@@]1(C)[C@@H]3CC[C@H]4C(C)(C)[C@@H](O[C@H]5CN([C@H](C)CF)CCO5)CCC45C[C@@]35CC[C@]21C)C(C)(C)O (stereo partly drawn)
- IC50 (Aβ-38): 1 to 10 µM
- IC50 (Aβ-40): > 10 µM
- IC50 (Aβ-42): 1 to 10 µM

Structure (SMILES): CCO[C@@H]([C@H]1C[C@@H](C)[C@H]2[C@H](O1)[C@H](O)[C@]1(C)[C@@H]3CC[C@H]4C(C)(C)[C@@H](O[C@H]5CN(C(=O)C6CNC6)CCO5)CC[C@@]45C[C@@]35CC[C@@]21C)C(C)(C)O
- IC50 (Aβ-38): < 1 µM
- IC50 (Aβ-40): 1 to 10 µM
- IC50 (Aβ-42): < 1 µM

Structure (SMILES): CCO[C@@H]([C@H]1C[C@@H](C)[C@H]2[C@H](O1)[C@H](O)[C@@]1(C)[C@@H]3CC[C@H]4C(C)(C)[C@@H](OC(=O)C5CNC5)CCC45C[C@@]35CC[C@]21C)C(C)(C)O (stereo partly drawn)
- IC50 (Aβ-38): < 1 µM
- IC50 (Aβ-40): 1 to 10 µM
- IC50 (Aβ-42): < 1 µM

Structure (SMILES): CCO[C@@H]([C@H]1C[C@@H](C)[C@H]2[C@H](O1)[C@H](O)[C@@]1(C)[C@@H]3CC[C@H]4C(C)(C)[C@@H](OC(=O)C5CN(C6CCC6)C5)CCC45C[C@@]35CC[C@]21C)C(C)(C)O (stereo partly drawn)
- IC50 (Aβ-38): < 1 µM
- IC50 (Aβ-40): 1 to 10 µM
- IC50 (Aβ-42): < 1 µM

Structure (SMILES): CCO[C@@H]([C@H]1C[C@@H](C)[C@H]2[C@H](O1)[C@H](O)[C@@]1(C)[C@@H]3CC[C@H]4C(C)(C)[C@@H](O[C@H]5CN([C@H](C)CO)CCO5)CC[C@@]45C[C@@]35CC[C@]21C)C(C)(C)O
- IC50 (Aβ-38): 1 to 10 µM
- IC50 (Aβ-40): 1 to 10 µM
- IC50 (Aβ-42): < 1 µM

Structure (SMILES): CCO[C@@H]([C@H]1C[C@@H](C)[C@H]2[C@H](O1)[C@H](O)[C@@]1(C)[C@@H]3CC[C@H]4C(C)(C)[C@@H](OC(=O)[C@@H]5COCCN5C)CCC45C[C@@]35CC[C@]21C)C(C)(C)O (stereo partly drawn)
- IC50 (Aβ-38): < 1 µM
- IC50 (Aβ-40): 1 to 10 µM
- IC50 (Aβ-42): < 1 µM

Structure (SMILES): CCO[C@@H]([C@H]1C[C@@H](C)[C@H]2[C@H](O1)[C@H](O)[C@@]1(C)[C@@H]3CC[C@H]4C(C)(C)[C@@H](O[C@H]5CN(c6cncc(F)c6)CCO5)CCC45C[C@@]35CC[C@]21C)C(C)(C)C (stereo partly drawn)
- IC50 (Aβ-38): 1 to 10 µM
- IC50 (Aβ-40): > 10 µM
- IC50 (Aβ-42): 1 to 10 µM

Structure (SMILES): CCO[C@@H](C1C[C@@H](C)[C@H]2C(O1)[C@H](O)[C@@]1(C)C3CC[C@H]4C(C)(C)[C@@H](O[C@H]5CN(C(=O)CC6CNC6)CCO5)CCC45C[C@@]35CC[C@]21C)C(C)(C)O (stereo partly drawn)
- IC50 (Aβ-38): < 1 µM
- IC50 (Aβ-40): 1 to 10 µM
- IC50 (Aβ-42): < 1 µM

Structure (SMILES): CCO[C@@H]([C@H]1C[C@@H](C)[C@H]2[C@H](O1)[C@H](O)[C@@]1(C)[C@@H]3CC[C@H]4C(C)(C)[C@@H](O[C@H]5CN(C(C)(C)CO)CCO5)CCC45C[C@@]35CC[C@]21C)C(C)(C)O (stereo partly drawn)
- IC50 (Aβ-38): < 1 µM
- IC50 (Aβ-40): 1 to 10 µM
- IC50 (Aβ-42): < 1 µM

Structure (SMILES): CCO[C@@H]([C@H]1C[C@@H](C)[C@H]2[C@H](O1)[C@H](O)[C@@]1(C)[C@@H]3CC[C@H]4C(C)(C)[C@@H](O[C@H]5CN(CC(=O)N(C)C)CCO5)CCC45C[C@@]35CC[C@]21C)C(C)(C)O (stereo partly drawn)
- IC50 (Aβ-38): < 1 µM
- IC50 (Aβ-40): 1 to 10 µM
- IC50 (Aβ-42): < 1 µM

Structure (SMILES): CCO[C@@H]([C@H]1C[C@@H](C)[C@H]2[C@H](O1)[C@H](O)[C@@]1(C)[C@@H]3CC[C@H]4C(C)(C)[C@@H](OC(=O)[C@@H]5C[C@@H](O)CN5)CCC45C[C@@]35CC[C@]21C)C(C)(C)O (stereo partly drawn)
- IC50 (Aβ-38): < 1 µM
- IC50 (Aβ-40): 1 to 10 µM
- IC50 (Aβ-42): < 1 µM

Structure (SMILES): CCO[C@@H]([C@H]1C[C@@H](C)[C@H]2[C@H](O1)[C@H](O)[C@@]1(C)[C@@H]3CC[C@H]4C(C)(C)[C@@H](O[C@H]5CN(CCN6CCOC6=O)CCO5)CCC45C[C@@]35CC[C@]21C)C(C)(C)O (stereo partly drawn)
- IC50 (Aβ-38): < 1 µM
- IC50 (Aβ-40): 1 to 10 µM
- IC50 (Aβ-42): < 1 µM

Structure (SMILES): CCO[C@@H]([C@H]1C[C@@H](C)[C@H]2[C@H](O1)[C@H](O)[C@@]1(C)[C@@H]3CC[C@H]4C(C)(C)C(O[C@H]5CN(CCNCCCOCCOCCOCCCNC(=O)CCCCC6SC[C@@H]7NC(=O)N[C@H]67)CCO5)CC[C@@]45CC35CC[C@]21C)C(C)(C)O (stereo partly drawn)
- IC50 (Aβ-38): < 1 µM
- IC50 (Aβ-40): 1 to 10 µM
- IC50 (Aβ-42): < 1 µM

Structure (SMILES): CC(C)[C@@H](OC(=O)N1CCC1)[C@H]1C[C@@H](C)[C@H]2[C@H](O1)[C@H](O)[C@@]1(C)[C@@H]3CC[C@H]4C(C)(C)[C@@H](O[C@H]5CN(C(=O)CN6CCC6)CCO5)CCC45C[C@@]35CC[C@]21C (stereo partly drawn)
- IC50 (Aβ-38): < 1 µM
- IC50 (Aβ-40): 1 to 10 µM
- IC50 (Aβ-42): < 1 µM

Structure (SMILES): CCO[C@@H]([C@H]1C[C@@H](C)[C@H]2[C@H](O1)[C@H](O)[C@@]1(C)[C@@H]3CC[C@H]4C(C)(C)[C@@H](O[C@H]5CN(C(C)(C)CN6CCOCC6)CCO5)CCC45C[C@@]35CC[C@]21C)C(C)(C)O (stereo partly drawn)
- IC50 (Aβ-38): < 1 µM
- IC50 (Aβ-40): 1 to 10 µM
- IC50 (Aβ-42): < 1 µM
